This passage reports EC50 and IC50 results from ChEMBL document CHEMBL1201862, “PubChem BioAssay data set” (2004).

A word on the EC50: it is the midpoint of the concentration-response curve. The term IC50 denotes the concentration that inhibits the measured activity by half.

What all share (format): functional
Test [1] has as its target T1, Cannabinoid receptor 1 (Homo sapiens, UniProt P21554). Nature of the test: SAR analysis of agonists of the Cannabinoid Receptor 1 using an Image-Based Assay - Set 4. [Related pubchem assays (depositor defined):AID2013, AID2026].
The target of test [2] is T2, G-protein coupled receptor 35 (Homo sapiens, UniProt Q9HC97). Description: SAR analysis of Agonists of the GPR35 Receptor using an Image-Based Assay - Set 4. [Related pubchem assays (depositor defined):AID2013, AID2026].
T2 sequence (Q9HC97 whole entry): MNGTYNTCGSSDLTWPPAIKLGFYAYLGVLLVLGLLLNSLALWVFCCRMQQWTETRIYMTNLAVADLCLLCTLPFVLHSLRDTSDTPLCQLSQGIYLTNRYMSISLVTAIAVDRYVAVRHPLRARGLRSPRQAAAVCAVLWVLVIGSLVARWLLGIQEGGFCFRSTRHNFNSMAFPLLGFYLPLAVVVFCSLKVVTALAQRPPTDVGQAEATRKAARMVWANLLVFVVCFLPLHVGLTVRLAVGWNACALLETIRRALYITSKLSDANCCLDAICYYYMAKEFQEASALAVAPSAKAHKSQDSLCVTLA
Test [3] concerns the target T3, Cannabinoid receptor 2 (Homo sapiens, UniProt P34972). Nature of the test: SAR analysis of agonists of the Cannabinoid Receptor 2 using an Image-Based Assay - Set 3. [Related pubchem assays (depositor defined):AID2013, AID2026].
For test [4], the target named is T2, G-protein coupled receptor 35. Nature of the test: SAR analysis of Antagonists of the GPR35 Receptor using an Image-Based Assay - Set 6. [Related pubchem assays (depositor defined):AID2013, AID2026].
For test [5], the target named is T4, G-protein coupled receptor 55 (Homo sapiens, UniProt Q9Y2T6). Description: SAR Analysis of Selective Antagonists of GPR55 using an Image-Based Assay - Set 4. [Related pubchem assays (depositor defined):AID2013, AID2026].
T4 sequence (Q9Y2T6 whole entry): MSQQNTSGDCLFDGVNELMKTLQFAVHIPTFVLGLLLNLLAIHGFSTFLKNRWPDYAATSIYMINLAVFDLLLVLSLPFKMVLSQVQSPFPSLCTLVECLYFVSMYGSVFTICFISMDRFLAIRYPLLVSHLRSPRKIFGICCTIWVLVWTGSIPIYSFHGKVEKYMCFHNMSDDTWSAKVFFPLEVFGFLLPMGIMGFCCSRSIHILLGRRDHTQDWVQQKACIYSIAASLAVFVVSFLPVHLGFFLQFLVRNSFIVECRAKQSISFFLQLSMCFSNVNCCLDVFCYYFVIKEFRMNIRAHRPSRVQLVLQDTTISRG
Test [6] deals with T1, Cannabinoid receptor 1. Description: SAR analysis of antagonists of the Cannabinoid Receptor 1 using an Image-Based Assay - Set 4. [Related pubchem assays (depositor defined):AID2013, AID2026].
For test [7], the target named is T3, Cannabinoid receptor 2. Nature of the test: SAR analysis of antagonists of the Cannabinoid Receptor 2 using an Image-Based Assay - Set 3. [Related pubchem assays (depositor defined):AID2013, AID2026].
The target in test [8] is Sphingosine 1-phosphate receptor 3 (Homo sapiens, UniProt Q99500). Nature of the test: Late stage counterscreen assay for S1P4 antagonists: Fluorescence dose response cell-based screening assay for antagonists of the Sphingosine 1-Phosphate Receptor 3 (S1P3). [Related pubchem assays (depositor defined):AID1510, AID1524, AID1692, AID1853, AID2332, AID489009, AID489017]. (A counterscreen serves to expose hits that act by an unwanted route or on another target.)
Sphingosine 1-phosphate receptor 3, sequence (Q99500 whole entry): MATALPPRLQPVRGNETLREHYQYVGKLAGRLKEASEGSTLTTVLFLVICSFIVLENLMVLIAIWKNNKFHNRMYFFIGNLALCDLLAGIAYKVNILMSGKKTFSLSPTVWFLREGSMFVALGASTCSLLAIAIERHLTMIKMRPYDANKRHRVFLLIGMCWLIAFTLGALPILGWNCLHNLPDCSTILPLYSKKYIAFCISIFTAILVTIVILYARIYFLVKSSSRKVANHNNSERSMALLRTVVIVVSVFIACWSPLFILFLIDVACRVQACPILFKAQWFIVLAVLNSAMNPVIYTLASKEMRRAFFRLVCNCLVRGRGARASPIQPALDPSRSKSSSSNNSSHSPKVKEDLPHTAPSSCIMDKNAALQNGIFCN

The target in test [9] is Sphingosine 1-phosphate receptor 2 (Homo sapiens, UniProt O95136). Description: Late stage counterscreen assay for S1P4 antagonists: Fluorescence dose response cell-based screening assay for antagonists of the Sphingosine 1-Phosphate Receptor 2 (S1P2). [Related pubchem assays (depositor defined):AID1510, AID1524, AID1692, AID1853, AID2332, AID489009, AID489017].
Sphingosine 1-phosphate receptor 2, sequence (O95136 whole entry): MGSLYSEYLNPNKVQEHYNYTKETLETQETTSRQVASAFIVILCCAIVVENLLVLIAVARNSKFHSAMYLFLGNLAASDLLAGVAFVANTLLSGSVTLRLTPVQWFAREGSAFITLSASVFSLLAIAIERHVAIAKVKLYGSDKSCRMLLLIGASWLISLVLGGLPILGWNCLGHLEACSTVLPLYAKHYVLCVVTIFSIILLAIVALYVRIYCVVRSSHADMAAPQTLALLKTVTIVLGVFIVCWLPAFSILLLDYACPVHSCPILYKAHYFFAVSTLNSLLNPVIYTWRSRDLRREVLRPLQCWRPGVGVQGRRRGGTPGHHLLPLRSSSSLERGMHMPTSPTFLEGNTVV
For test [10], the target named is Sphingosine 1-phosphate receptor 5 (Homo sapiens, UniProt Q9H228). Nature of the test: Late stage counterscreen assay for S1P4 antagonists: Fluorescence dose response cell-based screening assay for antagonists of the Sphingosine 1-Phosphate Receptor 5 (S1P5). [Related pubchem assays (depositor defined):AID1510, AID1524, AID1692, AID1853, AID2332, AID489009, AID489017].
Sphingosine 1-phosphate receptor 5, sequence (Q9H228 whole entry): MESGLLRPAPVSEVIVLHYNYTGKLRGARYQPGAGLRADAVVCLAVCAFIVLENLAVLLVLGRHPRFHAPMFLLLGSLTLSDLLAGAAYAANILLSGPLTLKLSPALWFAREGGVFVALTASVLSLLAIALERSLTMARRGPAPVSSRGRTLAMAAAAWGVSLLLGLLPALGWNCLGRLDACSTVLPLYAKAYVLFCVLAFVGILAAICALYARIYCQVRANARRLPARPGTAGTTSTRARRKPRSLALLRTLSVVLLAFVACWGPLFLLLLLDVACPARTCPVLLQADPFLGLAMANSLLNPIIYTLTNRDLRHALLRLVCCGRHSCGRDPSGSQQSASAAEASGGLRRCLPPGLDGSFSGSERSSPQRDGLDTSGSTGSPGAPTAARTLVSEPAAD

Test [11] addresses Sphingosine 1-phosphate receptor 1 (Homo sapiens, UniProt P21453). Nature of the test: Late stage counterscreen assay for S1P4 antagonists: Fluorescence dose response cell-based screening assay for antagonists of the Sphingosine 1-Phosphate Receptor 1 (S1P1). [Related pubchem assays (depositor defined):AID1510, AID1524, AID1692, AID1853, AID2332, AID489009, AID489017].
In test [12] the target is T4, G-protein coupled receptor 55. Description: blockers of GPR55 signalling, imaged – imaging, image-based, counter-screen for GPR35 antagonist project, SAR follow-up (AID 2397).

SMILES strings stand for the structures. The source made the active and inactive calls.

T3 sequence (P34972 whole entry): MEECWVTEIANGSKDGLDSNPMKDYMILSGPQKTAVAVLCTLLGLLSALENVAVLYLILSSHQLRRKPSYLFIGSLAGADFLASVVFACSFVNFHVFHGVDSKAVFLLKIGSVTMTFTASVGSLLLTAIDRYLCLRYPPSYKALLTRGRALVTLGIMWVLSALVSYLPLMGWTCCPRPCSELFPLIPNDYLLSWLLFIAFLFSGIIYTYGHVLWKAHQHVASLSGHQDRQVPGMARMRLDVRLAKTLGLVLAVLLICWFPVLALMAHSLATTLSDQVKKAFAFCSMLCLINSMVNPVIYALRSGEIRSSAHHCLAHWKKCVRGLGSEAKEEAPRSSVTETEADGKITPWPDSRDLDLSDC
T1 sequence (P21554 whole entry): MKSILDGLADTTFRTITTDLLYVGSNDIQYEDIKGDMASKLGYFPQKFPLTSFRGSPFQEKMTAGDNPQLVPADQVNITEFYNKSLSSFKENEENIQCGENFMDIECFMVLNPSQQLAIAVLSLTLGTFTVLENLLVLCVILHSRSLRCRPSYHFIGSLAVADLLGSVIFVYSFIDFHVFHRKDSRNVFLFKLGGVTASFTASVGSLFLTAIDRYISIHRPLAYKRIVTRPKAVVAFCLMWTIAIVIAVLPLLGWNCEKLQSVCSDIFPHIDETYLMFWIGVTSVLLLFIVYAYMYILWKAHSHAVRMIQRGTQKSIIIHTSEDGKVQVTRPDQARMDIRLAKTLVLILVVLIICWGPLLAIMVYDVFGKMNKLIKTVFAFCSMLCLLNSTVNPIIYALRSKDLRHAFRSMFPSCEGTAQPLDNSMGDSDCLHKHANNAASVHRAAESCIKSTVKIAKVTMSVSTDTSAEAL
Sphingosine 1-phosphate receptor 1, sequence (P21453 whole entry): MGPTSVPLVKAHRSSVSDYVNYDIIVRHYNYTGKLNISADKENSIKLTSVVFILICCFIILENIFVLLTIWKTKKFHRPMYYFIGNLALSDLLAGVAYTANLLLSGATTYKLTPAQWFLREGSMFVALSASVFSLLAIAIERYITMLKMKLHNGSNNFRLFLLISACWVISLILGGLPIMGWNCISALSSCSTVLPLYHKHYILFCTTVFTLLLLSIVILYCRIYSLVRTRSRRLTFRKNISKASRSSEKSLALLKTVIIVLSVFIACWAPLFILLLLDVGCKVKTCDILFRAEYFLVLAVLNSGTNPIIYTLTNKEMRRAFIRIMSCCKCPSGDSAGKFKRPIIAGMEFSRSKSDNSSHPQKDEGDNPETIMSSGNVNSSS

As for `Cc1cc(C)nc(NS(=O)(=O)c2ccc(NC(=O)c3cc(-c4ccccc4)nc4ccccc34)cc2)n1`, the EC50 (on Cannabinoid receptor 1 [1]; in [2]; on Cannabinoid receptor 2 [3]) was > 32 µM (inactive) throughout. The IC50 in test [4] was > 32 µM (inactive); in test [5] it was 13.7 µM (inactive); at Cannabinoid receptor 1 [6], 4.92 µM (active); on Cannabinoid receptor 2 [7] it was > 32 µM (inactive).
For `Cc1ccc2ccccc2c1NC(=O)c1ccc(-c2cc(Cl)ccc2Cl)o1`, the IC50 in [8], in test [9], in test [10] and in test [11] was > 25 µM (inactive) throughout.
Turning to `O=C(Nc1ccc2nc(SCc3ccc(Cl)c(Cl)c3)sc2c1)c1ccccc1Br`, the IC50 in [12] is > 32 µM (inactive).
